From patent US20210177847A1, “Compounds for treatment of diseases related to DUX4 expression” (Facio Intellectual Property B.V., priority 2017, published 2021)

These molecules were tested on DUX4 (assay: High-content immunocytochemistry assay of endogenous DUX4 expression in differentiating primary FSHD myotubes). Conditions: Homo sapiens, Myotube, 15 h, read-out: half maximal effective concentration (EC50), DUX4 repression.
Type: cell-based, human
From the text: A quantitative assay readout was developed based on script-based image analysis. Cells were stained according to example 1, also using DAPI to detect myonuclei and an antibody against myosin heavy chain (MHC) to visualize the formation of myotubes. To analyse the images, an automated script was developed, enabling the detection of nuclei, myotube borders and DUX4 signals, with the script also detecting artefacts to reduce false positive signals. The script enabled multiple validated readouts including the number of DUX4 positive nuclei and nuclei clusters, the fusion index, myotube area, myotube width and myotube skeleton length (see FIG. 2). Additionally, the total nuclei count was included as a measure of cell loss or compound toxicity. The script was validated by evaluating endogenous DUX4 expression in the primary myotubes, and results were in line with literature values, with the number of DUX4 expressing nuclei being <0.5%.
A compound library containing approximately 5000 annotated compounds was screened in the high-content assay. For this purpose, primary myoblasts were seeded in 384 well plates after which the growth medium was replaced with differentiation medium. After 3 days of differentiation, cells were treated with library compounds (in duplicate on different screening plates) for 15 h, after which they were fixed and stained with antibodies against DUX4, antibodies against myosin heavy chain (MHC), and with DAPI (4′,6-diamidino-2-phenylindole). Script-based analysis provided readouts for DUX4 expression (count of DUX4-positive nuclei or DUX4 intensity) and for potential toxicity (fusion index and nuclei count). The majority of the approximately 200 hits was confirmed in an experiment using the same assay and 5 replicates. These compounds were selected for further concentration-response profiling.
The DUX4 repression of CK1 inhibitors was assayed following the protocol of Example 2, illustrated in FIG. 4A. […] Compounds were incubated with primary FSHD cells for 15 hours, as indicated by the arrow in FIG. 4A.

Compound	EC50
CN1Cc2nccc(-c3cn(C)nc3-c3ccc(F)cc3)c2C1=O [Compound E]	1900 to 3100 nM
CNCc1cc(-c2cn(C)nc2-c2ccc(F)cc2)ccn1 [Compound I]	3100 to 5500 nM
Fc1cccc(-n2cnc3c(NCc4nc5ccc(F)c(F)c5[nH]4)nc(N4CCOCC4)nc32)c1 [SR-3029, reference compound]	50 to 120 nM

Same assay, conditions: Homo sapiens, Myotube; primary FSHD cells, compounds incubated 15 hours; Table 3; read-out: half maximal effective concentration (EC50), DUX4 repression

Compound	EC50
CC1(C)CN(c2ccc3nc(-c4ccc(F)cc4)c(-c4ccncc4)n3n2)CCN1 [Compound A]	40 to 50 nM
CN1CCN(c2ccc3nc(-c4ccc(F)cc4)c(-c4ccncc4)n3n2)CC1 [Compound B]	2000 nM
CNc1nccc(-c2c(-c3ccc(F)cc3)ncn2C2CCN(Cc3ccon3)CC2)n1 [Compound C]	1100 to 1400 nM
Cn1cc(-c2ccnc3c2C(=O)N(C2CCOCC2)C3)c(-c2ccc(F)cc2)n1 [Compound F]	1500 to 2600 nM
COCCN1Cc2nccc(-c3cn(C)nc3-c3ccc(F)cc3)c2C1=O [Compound G]	1700 to 4500 nM
Fc1ccc(-c2nc3ccc(N4CCNCC4)nn3c2-c2ccncc2)cc1 [Compound H]	10 to 46 nM
Fc1ccc(-c2nc(-c3c(F)cccc3F)[nH]c2-c2ccncc2)cc1 [Compound O]	710 nM
Nc1nccc(-c2c(-c3ccc(F)cc3)ncn2C2CCCCC2)n1 [PF-670462, reference compound]	430 nM
Nc1nccc(-c2c(-c3ccc(F)cc3)ncn2C2CCN(Cc3ccon3)CC2)n1 [PF-5006739, reference compound]	310 nM

Same assay, conditions: irrespective of treatment time (15 h or 72 h); not shown

Compound	effect on DUX4 expression
COc1cc(OC)c2c(=O)[nH]c(-c3cc(C)c(OCCO)c(C)c3)nc2c1 [RVX-208, reference compound]	did not show any effect on DUX4 expression

What follows are molecules tested against CK1α (Homo sapiens, UniProt P48729) (assay: CK1α inhibition IC50). Conditions: Table 3; read-out: CK1 a IC50.
Chain of CK1α (P48729 whole entry): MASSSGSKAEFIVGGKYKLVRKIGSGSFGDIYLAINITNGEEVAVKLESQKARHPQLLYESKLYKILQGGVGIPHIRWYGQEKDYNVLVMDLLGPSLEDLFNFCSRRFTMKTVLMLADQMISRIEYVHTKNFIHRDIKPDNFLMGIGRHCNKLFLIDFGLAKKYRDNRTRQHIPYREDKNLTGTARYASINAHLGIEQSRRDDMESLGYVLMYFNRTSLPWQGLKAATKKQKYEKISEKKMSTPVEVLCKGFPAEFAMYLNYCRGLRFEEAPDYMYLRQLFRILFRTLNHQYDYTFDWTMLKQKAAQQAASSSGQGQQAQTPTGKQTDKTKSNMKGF
Type: biochemical

Compound	IC50
COCCN1Cc2nccc(-c3cn(C)nc3-c3ccc(F)cc3)c2C1=O [Compound G]	2590 nM
Fc1ccc(-c2nc3ccc(N4CCNCC4)nn3c2-c2ccncc2)cc1 [Compound H]	22 nM
CNCc1cc(-c2cn(C)nc2-c2ccc(F)cc2)ccn1 [Compound I]	1760 nM
Fc1cccc(-n2cnc3c(NCc4nc5ccc(F)c(F)c5[nH]4)nc(N4CCOCC4)nc32)c1 [SR-3029, reference compound]	1000 nM

The molecules below were run against CK1δ (Homo sapiens, UniProt P48730) (assay: CK1δ inhibition IC50). Conditions: Table 3; read-out: CK1 d IC50.
Chain of CK1δ (P48730 whole entry): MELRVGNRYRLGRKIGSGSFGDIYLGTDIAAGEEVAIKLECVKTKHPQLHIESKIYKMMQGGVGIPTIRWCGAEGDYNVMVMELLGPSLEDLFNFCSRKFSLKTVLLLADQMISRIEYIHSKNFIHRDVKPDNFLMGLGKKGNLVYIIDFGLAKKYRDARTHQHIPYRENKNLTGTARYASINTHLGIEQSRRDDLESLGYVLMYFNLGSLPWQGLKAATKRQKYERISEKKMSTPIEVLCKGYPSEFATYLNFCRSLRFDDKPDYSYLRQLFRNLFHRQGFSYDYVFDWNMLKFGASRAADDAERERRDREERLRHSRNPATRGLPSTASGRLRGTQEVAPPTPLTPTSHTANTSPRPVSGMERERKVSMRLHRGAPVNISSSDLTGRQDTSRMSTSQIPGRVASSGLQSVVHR
Type: biochemical

Compound	IC50
COCCN1Cc2nccc(-c3cn(C)nc3-c3ccc(F)cc3)c2C1=O [Compound G]	41.8 nM
Fc1ccc(-c2nc3ccc(N4CCNCC4)nn3c2-c2ccncc2)cc1 [Compound H]	16.5 nM
CNCc1cc(-c2cn(C)nc2-c2ccc(F)cc2)ccn1 [Compound I]	57.7 nM

Each molecule was assayed against CK1ε (Homo sapiens, UniProt P49674) (assay: CK1ε inhibition IC50). Conditions: Table 3; read-out: CK1 e IC50.
Chain of CK1ε (P49674 whole entry): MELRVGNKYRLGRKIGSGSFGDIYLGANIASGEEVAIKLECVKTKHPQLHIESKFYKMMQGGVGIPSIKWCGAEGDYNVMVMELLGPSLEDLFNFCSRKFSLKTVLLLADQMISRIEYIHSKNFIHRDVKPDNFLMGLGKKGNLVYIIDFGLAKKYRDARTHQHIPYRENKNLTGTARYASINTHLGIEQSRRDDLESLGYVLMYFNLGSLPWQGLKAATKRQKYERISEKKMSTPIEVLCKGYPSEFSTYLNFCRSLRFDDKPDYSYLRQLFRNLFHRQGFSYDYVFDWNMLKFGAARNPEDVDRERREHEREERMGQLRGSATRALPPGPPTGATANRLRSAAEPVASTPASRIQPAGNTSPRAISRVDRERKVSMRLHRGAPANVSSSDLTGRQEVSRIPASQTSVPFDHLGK
Type: biochemical

Compound	IC50
COCCN1Cc2nccc(-c3cn(C)nc3-c3ccc(F)cc3)c2C1=O [Compound G]	92.1 nM
Fc1ccc(-c2nc3ccc(N4CCNCC4)nn3c2-c2ccncc2)cc1 [Compound H]	9.41 nM
CNCc1cc(-c2cn(C)nc2-c2ccc(F)cc2)ccn1 [Compound I]	89 nM

Each molecule was assayed against p38α (Homo sapiens, UniProt Q16539) (assay: p38α inhibition IC50). Conditions: Table 3; read-out: p38a IC50.
Chain of p38α (Q16539 whole entry): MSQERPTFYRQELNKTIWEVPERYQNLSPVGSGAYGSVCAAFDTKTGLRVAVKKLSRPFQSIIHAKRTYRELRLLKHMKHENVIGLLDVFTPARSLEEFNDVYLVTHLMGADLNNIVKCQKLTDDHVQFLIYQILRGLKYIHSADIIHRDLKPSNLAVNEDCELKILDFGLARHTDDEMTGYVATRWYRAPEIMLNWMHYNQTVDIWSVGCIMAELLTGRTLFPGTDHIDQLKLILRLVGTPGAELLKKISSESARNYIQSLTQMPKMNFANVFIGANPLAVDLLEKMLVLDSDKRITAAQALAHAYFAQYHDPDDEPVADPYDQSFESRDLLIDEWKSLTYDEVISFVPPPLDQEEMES
Type: biochemical

Compound	IC50
COCCN1Cc2nccc(-c3cn(C)nc3-c3ccc(F)cc3)c2C1=O [Compound G]	712 nM
Fc1ccc(-c2nc3ccc(N4CCNCC4)nn3c2-c2ccncc2)cc1 [Compound H]	14.8 nM
CNCc1cc(-c2cn(C)nc2-c2ccc(F)cc2)ccn1 [Compound I]	3070 nM
Fc1cccc(-n2cnc3c(NCc4nc5ccc(F)c(F)c5[nH]4)nc(N4CCOCC4)nc32)c1 [SR-3029, reference compound]	1000 nM
